Tests used:
Format in all cases: functional
PC-3 [1] = test: Synergistic anticancer activity against human PC-3 cells assessed as cell growth inhibition at 1.25 uM measured after 72 hrs in presence of 0.1 uM of topotecan by MTT assay relative to control; settings: read-out: GI
PC-3 [2] = test: Synergistic anticancer activity against human PC-3 cells assessed as cell growth inhibition at 0.625 uM measured after 72 hrs in presence of 0.00001 uM of topotecan by MTT assay relative to control; settings: read-out: GI
PC-3 [3] = test: Synergistic anticancer activity against human PC-3 cells assessed as cell growth inhibition at 0.625 uM measured after 72 hrs in presence of 1 uM of topotecan by MTT assay relative to control; settings: read-out: GI
PC-3 [4] = test: Cytotoxicity against human PC-3 cells assessed as cell growth inhibition at 0.625 uM measured after 72 hrs by MTT assay relative to control; settings: read-out: GI
[5] = Synergistic anticancer activity against mouse RCaP cells assessed as cell growth inhibition at 1.25 uM measured after 72 hrs in presence of 0.00001 uM of topotecan by MTT assay relative to control; settings: read-out: GI
PC-3 [6] = test: Cytotoxicity against human PC-3 cells assessed as cell growth inhibition at […] measured after 72 hrs by MTT assay relative to control; settings: dose 2.5 µM, read-out: GI
PC-3 [7] = test: Synergistic anticancer activity against human PC-3 cells assessed as cell growth inhibition at […] measured after 72 hrs in presence of 0.01 uM of topotecan by MTT assay relative to control; settings: dose 2.5 µM, read-out: GI
[8] = Synergistic anticancer activity against mouse RCaP cells assessed as cell growth inhibition at 0.625 uM measured after 72 hrs in presence of 0.1 uM of topotecan by MTT assay relative to control; settings: read-out: GI
[9] = Cytotoxicity against mouse RCaP cells assessed as cell growth inhibition at 0.625 uM measured after 72 hrs by MTT assay relative to control; settings: read-out: GI
PC-3 [10] = test: Synergistic anticancer activity against human PC-3 cells assessed as cell growth inhibition at 1.25 uM measured after 72 hrs in presence of 10 uM of topotecan by MTT assay relative to control; settings: read-out: GI
PC-3 [11] = test: Synergistic anticancer activity against human PC-3 cells assessed as cell growth inhibition at […] measured after 72 hrs in presence of 0.1 uM of topotecan by MTT assay relative to control; settings: dose 2.5 µM, read-out: GI
[12] = Synergistic anticancer activity against mouse RCaP cells assessed as cell growth inhibition at 0.625 uM measured after 72 hrs in presence of 0.00001 uM of topotecan by MTT assay relative to control; settings: read-out: GI
PC-3 [13] = test: Cytotoxicity against human PC-3 cells assessed as cell growth inhibition at 1.25 uM measured after 72 hrs by MTT assay relative to control; settings: read-out: GI
PC-3 [14] = test: Synergistic anticancer activity against human PC-3 cells assessed as cell growth inhibition at 0.625 uM measured after 72 hrs in presence of 0.01 uM of topotecan by MTT assay relative to control; settings: read-out: GI
PC-3 [15] = test: Synergistic anticancer activity against human PC-3 cells assessed as cell growth inhibition at […] measured after 72 hrs in presence of 0.00001 uM of topotecan by MTT assay relative to control; settings: dose 2.5 µM, read-out: GI
[16] = Synergistic anticancer activity against mouse RCaP cells assessed as cell growth inhibition at 1.25 uM measured after 72 hrs in presence of 0.1 uM of topotecan by MTT assay relative to control; settings: read-out: GI
PC-3 [17] = test: Synergistic anticancer activity against human PC-3 cells assessed as cell growth inhibition at 0.625 uM measured after 72 hrs in presence of 0.0001 uM of topotecan by MTT assay relative to control; settings: read-out: GI
PC-3 [18] = test: Synergistic anticancer activity against human PC-3 cells assessed as cell growth inhibition at 1.25 uM measured after 72 hrs in presence of 0.0001 uM of topotecan by MTT assay relative to control; settings: read-out: GI
[19] = Synergistic anticancer activity against mouse RCaP cells assessed as cell growth inhibition at 1.25 uM measured after 72 hrs in presence of 10 uM of topotecan by MTT assay relative to control; settings: read-out: GI
[20] = Cytotoxicity against mouse RCaP cells assessed as cell growth inhibition at 1.25 uM measured after 72 hrs by MTT assay relative to control; settings: read-out: GI
PC-3 [21] = test: Synergistic anticancer activity against human PC-3 cells assessed as cell growth inhibition at 0.625 uM measured after 72 hrs in presence of 10 uM of topotecan by MTT assay relative to control; settings: read-out: GI
PC-3 [22] = test: Synergistic anticancer activity against human PC-3 cells assessed as cell growth inhibition at 1.25 uM measured after 72 hrs in presence of 0.001 uM of topotecan by MTT assay relative to control; settings: read-out: GI
[23] = Synergistic anticancer activity against mouse RCaP cells assessed as cell growth inhibition at 1.25 uM measured after 72 hrs in presence of 0.01 uM of topotecan by MTT assay relative to control; settings: read-out: GI
PC-3 [24] = test: Synergistic anticancer activity against human PC-3 cells assessed as cell growth inhibition at 1.25 uM measured after 72 hrs in presence of 0.00001 uM of topotecan by MTT assay relative to control; settings: read-out: GI
PC-3 [25] = test: Synergistic anticancer activity against human PC-3 cells assessed as cell growth inhibition at 1.25 uM measured after 72 hrs in presence of 1 uM of topotecan by MTT assay relative to control; settings: read-out: GI
PC-3 [26] = test: Synergistic anticancer activity against human PC-3 cells assessed as cell growth inhibition at […] measured after 72 hrs in presence of 10 uM of topotecan by MTT assay relative to control; settings: dose 2.5 µM, read-out: GI
[27] = Synergistic anticancer activity against mouse RCaP cells assessed as cell growth inhibition at 0.625 uM measured after 72 hrs in presence of 10 uM of topotecan by MTT assay relative to control; settings: read-out: GI
PC-3 [28] = test: Synergistic anticancer activity against human PC-3 cells assessed as cell growth inhibition at […] measured after 72 hrs in presence of 0.001 uM of topotecan by MTT assay relative to control; settings: dose 2.5 µM, read-out: GI
PC-3 [29] = test: Synergistic anticancer activity against human PC-3 cells assessed as cell growth inhibition at 1.25 uM measured after 72 hrs in presence of 0.01 uM of topotecan by MTT assay relative to control; settings: read-out: GI
[30] = Synergistic anticancer activity against mouse RCaP cells assessed as cell growth inhibition at 0.625 uM measured after 72 hrs in presence of 0.01 uM of topotecan by MTT assay relative to control; settings: read-out: GI
[31] = Synergistic anticancer activity against mouse RCaP cells assessed as cell growth inhibition at 1.25 uM measured after 72 hrs in presence of 0.0001 uM of topotecan by MTT assay relative to control; settings: read-out: GI
[32] = Synergistic anticancer activity against mouse RCaP cells assessed as cell growth inhibition at 1.25 uM measured after 72 hrs in presence of 1 uM of topotecan by MTT assay relative to control; settings: read-out: GI
PC-3 [33] = test: Synergistic anticancer activity against human PC-3 cells assessed as cell growth inhibition at 0.625 uM measured after 72 hrs in presence of 0.001 uM of topotecan by MTT assay relative to control; settings: read-out: GI
PC-3 [34] = test: Synergistic anticancer activity against human PC-3 cells assessed as cell growth inhibition at […] measured after 72 hrs in presence of 1 uM of topotecan by MTT assay relative to control; settings: dose 2.5 µM, read-out: GI

COc1ccccc1[C@H]1[C@H](C(=O)O)[C@H](c2ccccc2OC)[C@H]1C(=O)Oc1cc(-c2ccc3c(c2)OCO3)ccc1-c1ccccc1
inhibition of growth at 1.25 µM (PC-3 [1]): 72.5% | inhibition of growth at 0.625 µM (PC-3 [2]): 1.6% | inhibition of growth at 0.625 µM (PC-3 [3]): 90.2% | inhibition of growth at 0.625 µM (PC-3 [4]): -2.63% | inhibition of growth at 1.25 µM [5]: -1.87% | inhibition of growth at […] (PC-3 [6]): 7.37% | inhibition of growth at […] (PC-3 [7]): 54.6% | inhibition of growth at 0.625 µM [8]: 90.2% | inhibition of growth at 0.625 µM [9]: -2.53% | inhibition of growth at 1.25 µM (PC-3 [10]): 93.4% | inhibition of growth at […] (PC-3 [11]): 67.4% | inhibition of growth at 0.625 µM [12]: -2.77% | inhibition of growth at 1.25 µM (PC-3 [13]): -2.3% | inhibition of growth at 0.625 µM (PC-3 [14]): 48% | inhibition of growth at […] (PC-3 [15]): 15.1% | inhibition of growth at 1.25 µM [16]: 90% | inhibition of growth at 0.625 µM (PC-3 [17]): 8.03% | inhibition of growth at 1.25 µM (PC-3 [18]): 14.7% | inhibition of growth at 1.25 µM [19]: 99.2% | inhibition of growth at 1.25 µM [20]: -1.17% | inhibition of growth at 0.625 µM (PC-3 [21]): 93.2% | inhibition of growth at 1.25 µM (PC-3 [22]): 33.1% | inhibition of growth at 1.25 µM [23]: 8.37% | inhibition of growth at 1.25 µM (PC-3 [24]): 12.9% | inhibition of growth at 1.25 µM (PC-3 [25]): 92.3% | inhibition of growth at […] (PC-3 [26]): 92.9% | inhibition of growth at 0.625 µM [27]: 99.2% | inhibition of growth at […] (PC-3 [28]): 34.3% | inhibition of growth at 1.25 µM (PC-3 [29]): 55.8% | inhibition of growth at 0.625 µM [30]: 10% | inhibition of growth at 1.25 µM [31]: -1.6% | inhibition of growth at 1.25 µM [32]: 97.6% | inhibition of growth at 0.625 µM (PC-3 [33]): 16.9% | inhibition of growth at […] (PC-3 [34]): 90.5%

From ChEMBL document CHEMBL6109109, “Fatty acid binding protein 5 inhibitors as novel anticancer agents against metastatic castration-resistant prostate cancer” (Bioorg Med Chem, 2025)
